Results on 7 compounds are retold here after US20230022157A1 (Achillion Pharmaceuticals, Inc., priority 2018, published 2023).

Bounds are passed on as bounds.

The target of one test is T1, Human Factor D (Homo sapiens, UniProt P00746).
T1 construct: purified from human serum; purchased Complement Technology, Inc; host or cells: human serum (natural protein, not recombinant)
T1 sequence (P00746 26-253): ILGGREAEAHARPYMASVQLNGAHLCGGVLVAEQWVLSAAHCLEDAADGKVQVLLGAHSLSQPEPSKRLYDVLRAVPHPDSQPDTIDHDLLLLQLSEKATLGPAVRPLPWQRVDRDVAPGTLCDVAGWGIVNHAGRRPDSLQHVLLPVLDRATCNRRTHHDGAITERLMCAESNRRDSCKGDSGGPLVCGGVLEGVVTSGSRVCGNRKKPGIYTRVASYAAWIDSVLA
Briefly: Human Factor D Assay. The note with it: Human Factor D 80 nM, substrate Z-L-Lys-SBzl, assay of Example 3; read-out: IC50 (Stars). It counts as biochemical. In short, it runs like this: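 Serum-purified human factor D (80 nM final) preincubated 5 min at room temperature with test compound in 50 mM Tris, 1M NaCl, pH 7.5. Z-L-Lys-SBzl substrate and DTNB then added, each at 100 μM final. IC50 from nonlinear regression of reaction rate against compound concentration.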
As a reminder, the IC50 is the concentration that inhibits the measured activity by half. Turning to `CC(=O)c1nn(CC(=O)N2[C@H](C(=O)NCCc3ccccc3Cl)C[C@@]3(C)C[C@@H]23)c2c(C)cc(-c3cnc(C)nc3)cc12` [Compound 3, (1R,3S,5R)-2-(2-(3-Acetyl-7-methyl-5-(2-methylpyrimidin-5-yl)-1H-indazol-1-yl)acetyl)-N-(2-chlorophenethyl)-5-methyl-2-azabicyclo[3.1.0]hexane-3-carboxamide], the IC50 is below 1000 nM.

Turning to `CC(=O)c1nn(CC(=O)N2[C@H](C(=O)Nc3cccc(Br)n3)C[C@@]3(C)C[C@@H]23)c2c3c(c(-c4cnc(C)nc4)cc12)CCCO3` [Compound 19, (1R,3S,5R)-2-(2-(3-acetyl-5-(2-methylpyrimidin-5-yl)-7,8-dihydropyran[3,2-g]indazol-1(6H)-yl)acetyl)-N-(6-bromopyridin-2-yl)-5-methyl-2-azabicyclo[3.1.0] hexane-3-carboxamide], the half-maximal inhibitory concentration (IC50) is below 1000 nM.

Turning to `CC(=O)c1nn(CC(=O)N2[C@H](C(=O)Nc3nc(Br)ccc3C)C[C@@]3(C)C[C@@H]23)c2ccc(-c3cnc(CO)nc3)cc12` [Compound 30, (1R,3S,5R)-2-(2-(3-acetyl-5-(2-(hydroxymethyl)pyrimidin-5-yl)-1H-indazol-1-yl)acetyl)-N-(6-bromo-3-methylpyridin-2-yl)-5-methyl-2-azabicyclo[3.1.0]hexane-3-carboxamide], the IC50 is below 1000 nM.

The test is the same for the next values; noted with them: Human Factor D 80 nM, substrate Z-L-Lys-SBzl; Table 2; read-out: IC50 (Stars).
For the compound `CC(=O)c1nn(CC(=O)N2[C@H](C(=O)Nc3nc(Br)c(F)cc3C)C[C@@]3(C)C[C@@H]23)c2c(C)cc(-c3cnc(CO)cn3)cc12` [Compound 131, (1R,3S,5R)-2-(2-(3-acetyl-5-(5-(hydroxymethyl)pyrazin-2-yl)-7-methyl-1H-indazol-1-yl)acetyl)-N-(6-bromo-5-fluoro-3-methylpyridin-2-yl)-5-methyl-2-azabicyclo[3.1.0]hexane-3-carboxamide], the IC50 was below 1000 nM.

As to `CC(=O)c1cn(CC(=O)N2[C@H](C(=O)Nc3nc(C(F)(F)F)ccc3C)C[C@@]3(C)C[C@@H]23)c2cc(F)c(-c3cnc4cc(C)nn4c3)cc12` [Compound 230, (1R,3S,5R)-2-(2-(3-acetyl-6-fluoro-5-(2-methylpyrazolo[1,5-a]pyrimidin-6-yl)-1H-indol-1-yl)acetyl)-5-methyl-N-(3-methyl-6-(trifluoromethyl)pyridin-2-yl)-2-azabicyclo[3.1.0]hexane-3-carboxamide], the concentration for half-maximal inhibition (IC50) was below 1000 nM.

With `COC(=O)c1ncc(-c2cc(C)c3c(c2)c(C(C)=O)nn3CC(=O)N2[C@H](C(=O)Nc3cncc(Br)n3)C[C@@]3(C)C[C@@H]23)cn1` [Compound 42, Methyl 5-(3-acetyl-1-(2-((1R,3S,5R)-3-((6-bromopyrazin-2-yl)carbamoyl)-5-methyl-2-azabicyclo[3.1.0]hexan-2-yl)-2-oxoethyl)-7-methyl-1H-indazol-5-yl)pyrimidine-2-carboxylate], the 50% inhibitory concentration (IC50) is below 1000 nM.

Take `CC(=O)c1nn(CC(=O)N2[C@H](C(=O)Nc3nc(Br)ccc3C)C[C@@]3(C)C[C@@H]23)c2c(C)cc(-c3cncc(S(C)(=O)=O)c3)cc12` [Compound 129, (1R,3S,5R)-2-(2-(3-Acetyl-7-methyl-5-(5-(methylsulfonyl)pyridin-3-yl)-1H-indazol-1-yl)acetyl)-N-(6-bromo-3-methylpyridin-2-yl)-5-methyl-2-azabicyclo[3.1.0]hexane-3-carboxamide]: the IC50 was below 1000 nM.
